Experimental data published in the supplement of paper PMC11208160.

test: recombinant barcode read abundance after kanamycin selection (control-corrected) (log10(CPM+1)); higher = more efficient recombination; sequences stand for … in AGTGCAGAGAAAATCGGCCAGTTTTCTCTGCCTGCAGTCCGCATGCCGT…AGATTTATGCAGCGGACTGCCTTTCTCCCAAAGTGATAAACCGGACAGTATCATGGACCGGTTTTCCCGGTAATCCGTATTTGCAAGGTTGGTTTCACT; site = the 11-nt target
Method: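 Pooled E. coli target-specificity screen for the IS621 bridge recombinase. Each library plasmid pairs an 11-nt target (CT core) with a bridge RNA whose target-binding loop (9-nt LTG + 4-nt RTG) is reprogrammed; the rest of the 177-nt WT IS621 bridge RNA scaffold is fixed. The plasmid is co-electroporated with a WT donor plasmid; recombinase is induced with 0.1 mM IPTG and recombinants are selected on kanamycin. Recombinant barcodes are sequenced, converted to CPM, averaged over two biological replicates and corrected by the unselected control CPM. Molecule = full bridge RNA written as DNA: LTG = specificity nt 1-9, RTG = reverse complement of specificity nt 8-11, in the WT scaffold.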
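Also: IS621 recombinase and bridge RNA in Escherichia coli cells.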

| Sequence | recombinant barcode read abundance (log10) |
| --- | --- |
| AAACCGCCTTGGGTTCTAACCTGTTGCCT (site AAACCGCCTAG) | 1.11 |
| AAACCGCCTTGGGTTCTAACCTGTTGCCT (site AAACGGCCTAG) | 0.163 |
| AAACGGCCTTGGGTTCTAACCTGTTGCCT (site AAACCGCCTAG) | 0.147 |
| AAACGGCCTTGGGTTCTAACCTGTTGCCT (site AAACGGCCTAG) | 0.522 |
| AAACGGTCTTGGGTTCTAACCTGTTGCTA (site AAACGGTCTTA) | 1.53 |
| AAACGGTCTTGGGTTCTAACCTGTTGCTA (site AAATGGTCTTA) | 0.131 |
| AAAGCTACTTGGGTTCTAACCTGTTGCCT (site AAAGCTACTAG) | 1.11 |
| AAAGCTACTTGGGTTCTAACCTGTTGCCT (site AAAGCTCCTAA) | 0.124 |
| AAAGGGGCTTGGGTTCTAACCTGTTGCCT (site AAAGGGGCTAG) | 2.2 |
| AAAGGGGCTTGGGTTCTAACCTGTTGCCT (site TTGCATTCTCA) | 0.155 |
| AAAGGGTCTTGGGTTCTAACCTGTTGCCT (site AAAGGGTCTAG) | 1.8 |
| AAAGGGTCTTGGGTTCTAACCTGTTGCCT (site ACAGGGTCTAG) | 0.327 |
| AAAGGGTCTTGGGTTCTAACCTGTTGCCT (site AGAGGGTCTAG) | 0.0828 |
| AAAGGGTCTTGGGTTCTAACCTGTTGCCT (site ATAGGGTCTAG) | 0.689 |
| AAAGGTCCTTGGGTTCTAACCTGTTGCAG (site AAAGGTCCTCT) | 2.69 |
| AAAGGTCCTTGGGTTCTAACCTGTTGCAG (site CTTTAGTCTTA) | 0.0927 |
| AAAGGTTCTTGGGTTCTAACCTGTTGCCT (site AAAGGTTCTAG) | 1.58 |
| AAAGGTTCTTGGGTTCTAACCTGTTGCCT (site ACAGGTTCTAG) | 0.0935 |

| Sequence | recombinant barcode read abundance (log10) |
| --- | --- |
| AAAGGTTCTTGGGTTCTAACCTGTTGCCT (site AGAGGTTCTAG) | 0.0624 |
| AAAGGTTCTTGGGTTCTAACCTGTTGCCT (site ATAGGTTCTAG) | 0.126 |
| AAAGTACCTTGGGTTCTAACCTGTTGCCT (site AAAGTACCTAG) | 2 |
| AAAGTACCTTGGGTTCTAACCTGTTGCCT (site CAAGTACCTAG) | 0.741 |
| AAAGTACCTTGGGTTCTAACCTGTTGCCT (site GAAGTACCTAG) | 0.0449 |
| AAAGTACCTTGGGTTCTAACCTGTTGCCT (site TAAGTACCTAG) | 1.16 |
| AAAGTCCCTTGGGTTCTAACCTGTTGCCT (site AAAGTCCCTAG) | 1.03 |
| AAAGTCCCTTGGGTTCTAACCTGTTGCCT (site CAAGTCCCTAG) | 0.361 |
| AAAGTCCCTTGGGTTCTAACCTGTTGCCT (site GAAGTCCCTAG) | 0.218 |
| AAAGTCCCTTGGGTTCTAACCTGTTGCCT (site TAAGTCCCTAG) | 0.481 |
| AAATGGTCTTGGGTTCTAACCTGTTGCTA (site AAACGGTCTTA) | 0.814 |
| AAATGGTCTTGGGTTCTAACCTGTTGCTA (site AAATGGTCTTA) | 1.69 |
| AAATGTACTTGGGTTCTAACCTGTTGCCT (site AAATGTACTAG) | 1.04 |
| AAATGTACTTGGGTTCTAACCTGTTGCCT (site TGGGTCCCTTC) | 0.0555 |
| AACAATGCTTGGGTTCTAACCTGTTGCCT (site AACAATGCTAG) | 0.713 |
| AACAATGCTTGGGTTCTAACCTGTTGCCT (site AACACTGCTAG) | 0.33 |
| AACAATGCTTGGGTTCTAACCTGTTGCCT (site AACAGTGCTAG) | 0.207 |
| AACAATGCTTGGGTTCTAACCTGTTGCCT (site AACATTGCTAG) | 0.0444 |
